Drawing on the NIST ThermoML archive (doi:10.1016/j.jct.2017.11.017), this text covers activity coefficient for 22 molecules.

A short description of this data set: activity coefficient (dimensionless); of the first substance listed, at infinite dilution; xn = mol fraction of the nth substance listed. To be noted: 101.33 kPa, Liquid, Chromatography, x1 = 0.

Each structure is given as a SMILES string. ± gives the expanded uncertainty stated by the source.

Turning to `Cc1ccccc1C` [1,2-dimethylbenzene] + C[N+]1(CCCO)CCOCC1.N#C[N-]C#N, the activity coefficient is 18.2 ± 1.2 (318.15 K); 18.6 ± 1.3 (328.15 K); 18.8 ± 1.3 (338.15 K); 19 ± 1.3 (348.15 K); 19.2 ± 1.3 (358.15 K); 19.5 ± 1.3 (368.15 K).
As to `Cc1ccccc1C` [1,2-dimethylbenzene] + C[n+]1ccn(CCCO)c1.N#CN=C=[N-], the activity coefficient (318.15 K) is 10.9 ± 0.7; the activity coefficient (328.15 K) stood at 11.3 ± 0.8; the activity coefficient (338.15 K) is 11.7 ± 0.8; the activity coefficient (348.15 K) was determined as 12 ± 0.8; the activity coefficient (358.15 K) amounted to 12.5 ± 0.9; the activity coefficient (368.15 K) was 12.8 ± 0.9.
Regarding `Cc1cccc(C)c1` [1,3-dimethylbenzene] + C[N+]1(CCCO)CCOCC1.N#C[N-]C#N, the activity coefficient stood at 24.1 ± 1.6 (318.15 K); 24.1 ± 1.6 (328.15 K); 24.2 ± 1.7 (338.15 K); 24.3 ± 1.7 (348.15 K); 24.3 ± 1.7 (358.15 K); 24.5 ± 1.7 (368.15 K).
Consider `Cc1cccc(C)c1` [1,3-dimethylbenzene] + C[n+]1ccn(CCCO)c1.N#CN=C=[N-], for which the activity coefficient turned out to be 14.1 ± 1 (318.15 K); 14.5 ± 1 (328.15 K); 14.9 ± 1 (338.15 K); 15.2 ± 1 (348.15 K); 15.6 ± 1.1 (358.15 K); 16 ± 1.1 (368.15 K).
On to `Cc1ccc(C)cc1` [1,4-dimethylbenzene] + C[N+]1(CCCO)CCOCC1.N#C[N-]C#N, for which the activity coefficient (318.15 K) came to 23.2 ± 1.6; the activity coefficient (328.15 K) worked out at 23.3 ± 1.6; the activity coefficient (338.15 K) turned out to be 23.5 ± 1.6; the activity coefficient (348.15 K) stood at 23.7 ± 1.6; the activity coefficient (358.15 K) is 23.8 ± 1.6; the activity coefficient (368.15 K) worked out at 24.1 ± 1.6.
For the molecule `Cc1ccc(C)cc1` [1,4-dimethylbenzene] + C[n+]1ccn(CCCO)c1.N#CN=C=[N-], the activity coefficient by setting is: (318.15 K) 13.5 ± 0.9; (328.15 K) 13.9 ± 1; (338.15 K) 14.3 ± 1; (348.15 K) 14.7 ± 1; (358.15 K) 15.1 ± 1; (368.15 K) 15.5 ± 1.1.
As for `C1COCCO1` [1,4-dioxane] + C[N+]1(CCCO)CCOCC1.N#C[N-]C#N, the activity coefficient reads like this: (318.15 K) 1.94 ± 0.13; (328.15 K) 2.07 ± 0.14; (338.15 K) 2.2 ± 0.15; (348.15 K) 2.33 ± 0.16; (358.15 K) 2.45 ± 0.17; (368.15 K) 2.59 ± 0.18.
For the molecule `C1COCCO1` [1,4-dioxane] + C[n+]1ccn(CCCO)c1.N#CN=C=[N-], the activity coefficient (318.15 K) was found to be 1.73 ± 0.12; the activity coefficient (328.15 K) was 1.85 ± 0.12; the activity coefficient (338.15 K) was found to be 1.98 ± 0.13; the activity coefficient (348.15 K) was 2.09 ± 0.14; the activity coefficient (358.15 K) worked out at 2.23 ± 0.15; the activity coefficient (368.15 K) stood at 2.34 ± 0.16.
Consider `C=CCCCCCCCC` [1-decene] + C[N+]1(CCCO)CCOCC1.N#C[N-]C#N, for which the activity coefficient (308.15 K) was determined as 1640 ± 110; the activity coefficient (318.15 K) was 1460 ± 100; the activity coefficient (328.15 K) is 1300 ± 89; the activity coefficient (338.15 K) was found to be 1160 ± 80; the activity coefficient (348.15 K) amounted to 1050 ± 72; the activity coefficient (358.15 K) worked out at 952 ± 66. Also, the activity coefficient (368.15 K) is 875 ± 60.
As for `C=CCCCCCCCC` [1-decene] + C[n+]1ccn(CCCO)c1.N#CN=C=[N-], the activity coefficient (298.15 K) turned out to be 879 ± 61; the activity coefficient (308.15 K) was determined as 819 ± 56; the activity coefficient (318.15 K) came out at 764 ± 53; the activity coefficient (328.15 K) came out at 710 ± 49; the activity coefficient (338.15 K) came out at 662 ± 46; the activity coefficient (348.15 K) is 627 ± 43. The activity coefficient (358.15 K) is 590 ± 41.
For `C=CCCCCC` [1-heptene] + C[N+]1(CCCO)CCOCC1.N#C[N-]C#N, the activity coefficient is, setting by setting: (298.15 K) 793 ± 55; (308.15 K) 634 ± 44; (318.15 K) 519 ± 36; (328.15 K) 425 ± 29; (338.15 K) 359 ± 25.
`C=CCCCCC` [1-heptene] + C[n+]1ccn(CCCO)c1.N#CN=C=[N-]: the activity coefficient came to 208 ± 14 (298.15 K); 194 ± 13 (308.15 K); 176 ± 12 (318.15 K); 166 ± 11 (328.15 K); 156 ± 11 (338.15 K); 146 ± 10 (348.15 K). Moreover, the activity coefficient (358.15 K) came to 139 ± 10.
For `C#CCCCCC` [1-heptyne] + C[N+]1(CCCO)CCOCC1.N#C[N-]C#N, the activity coefficient was 82.9 ± 5.7 (308.15 K); 79.8 ± 5.5 (318.15 K); 76.7 ± 5.3 (328.15 K); 74 ± 5.1 (338.15 K); 72 ± 4.9 (348.15 K); 69.8 ± 4.8 (358.15 K). In addition, the activity coefficient (368.15 K) was 68.1 ± 4.7.
In the case of `C#CCCCCC` [1-heptyne] + C[n+]1ccn(CCCO)c1.N#CN=C=[N-], the activity coefficient came to 34 ± 2.3 (298.15 K); 34.3 ± 2.3 (308.15 K); 34.6 ± 2.4 (318.15 K); 34.6 ± 2.4 (328.15 K); 35.1 ± 2.4 (338.15 K); 35.3 ± 2.4 (348.15 K). In addition, for the setting “358.15 K”, the activity coefficient turned out to be 35.3 ± 2.4.
As to `C#CCCCC` [1-hexyne] + C[N+]1(CCCO)CCOCC1.N#C[N-]C#N, the activity coefficient was 44.5 ± 3 (308.15 K); 42.9 ± 2.9 (318.15 K); 41.6 ± 2.8 (328.15 K); 40.2 ± 2.8 (338.15 K); 39.1 ± 2.7 (348.15 K); 38 ± 2.6 (358.15 K). Further, the activity coefficient (368.15 K) was determined as 37 ± 2.5.
In the case of `C#CCCCC` [1-hexyne] + C[n+]1ccn(CCCO)c1.N#CN=C=[N-], the activity coefficient turned out to be 18.8 ± 1.3 (298.15 K); 19.3 ± 1.3 (308.15 K); 19.6 ± 1.3 (318.15 K); 20 ± 1.4 (328.15 K); 20.3 ± 1.4 (338.15 K); 20.6 ± 1.4 (348.15 K). In addition, the activity coefficient (358.15 K) is 21.4 ± 1.5.
As for `CCC[N+](=O)[O-]` [1-nitropropane] + C[N+]1(CCCO)CCOCC1.N#C[N-]C#N, the activity coefficient came out at 3.26 ± 0.22 (318.15 K); 3.35 ± 0.23 (328.15 K); 3.47 ± 0.24 (338.15 K); 3.55 ± 0.24 (348.15 K); 3.65 ± 0.25 (358.15 K); 3.74 ± 0.25 (368.15 K).
On to `CCC[N+](=O)[O-]` [1-nitropropane] + C[n+]1ccn(CCCO)c1.N#CN=C=[N-], for which the activity coefficient runs as follows: (318.15 K) 2.69 ± 0.18; (328.15 K) 2.79 ± 0.19; (338.15 K) 2.89 ± 0.2; (348.15 K) 2.97 ± 0.2; (358.15 K) 3.08 ± 0.21; (368.15 K) 3.17 ± 0.22.
`C#CCCCCCC` [1-octyne] + C[N+]1(CCCO)CCOCC1.N#C[N-]C#N: the activity coefficient runs as follows: (308.15 K) 151 ± 10; (318.15 K) 145 ± 10; (328.15 K) 138 ± 9; (338.15 K) 133 ± 9; (348.15 K) 128 ± 9; (358.15 K) 122 ± 8. Also, where the note is “368.15 K”, the activity coefficient came to 118 ± 8.
For the molecule `C#CCCCCCC` [1-octyne] + C[n+]1ccn(CCCO)c1.N#CN=C=[N-], the activity coefficient is 60.1 ± 4.1 (298.15 K); 60.2 ± 4.1 (308.15 K); 59.8 ± 4.1 (318.15 K); 59.6 ± 4.1 (328.15 K); 59.6 ± 4.1 (338.15 K); 59.4 ± 4.1 (348.15 K). Also, the activity coefficient (358.15 K) was 59.6 ± 4.1.
As to `C=CCCC` [1-pentene] + C[n+]1ccn(CCCO)c1.N#CN=C=[N-], the activity coefficient reads like this: (298.15 K) 74 ± 5.1; (308.15 K) 68.1 ± 4.7; (318.15 K) 63.5 ± 4.3; (328.15 K) 59.3 ± 4.1.
In the case of `C#CCCC` [1-pentyne] + C[N+]1(CCCO)CCOCC1.N#C[N-]C#N, the activity coefficient by setting is: (308.15 K) 24.2 ± 1.7; (318.15 K) 23.6 ± 1.6; (328.15 K) 23.1 ± 1.6; (338.15 K) 22.7 ± 1.6; (348.15 K) 22.4 ± 1.5; (358.15 K) 22 ± 1.5. Moreover, under “368.15 K”, the activity coefficient was found to be 21.7 ± 1.5.
